Reference: ChEMBL document CHEMBL1201862, “PubChem BioAssay data set” (2004)
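Step 1: Grow cells in 96-well plates. Step 2: Expose to compound for 48 hours at 5 concentrations. Step 3: Interpolate endpoints linearly; if unreached, use highest concentration. Abbreviation: GI50, concentration required for 50% inhibition of growth.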 Active and inactive are the calls of the source. No stated cut-off is given here; in the data, active = GI50 up to about 1.1 µM and inactive = higher.

What was measured:
Assay in all cases: inhibition of tumour cell growth, NCI panel, 48 h
SK-MEL-28 = test system: SK-MEL-28
A549 = test system: A549
K562 = test system: K562
786-0 = test system: 786-0
OVCAR-4 = test system: OVCAR-4
NCI-H226 = test system: NCI-H226
CAKI-1 = test system: CAKI-1
U-251 = test system: U-251
Malme-3M = test system: Malme-3M
MOLT-4 = test system: MOLT-4
SK-MEL-2 = test system: SK-MEL-2
NCI-H23 = test system: NCI-H23
HT-29 = test system: HT-29
CCRF-CEM = test system: CCRF-CEM
HCC 2998 = test system: HCC 2998
RPMI-8226 = test system: RPMI-8226

| SMILES | GI50 (SK-MEL-28) | GI50 (A549) | GI50 (K562) | GI50 (786-0) | GI50 (OVCAR-4) | GI50 (NCI-H226) | GI50 (CAKI-1) | GI50 (U-251) | GI50 (Malme-3M) | GI50 (MOLT-4) | GI50 (SK-MEL-2) | GI50 (NCI-H23) | GI50 (HT-29) | GI50 (CCRF-CEM) | GI50 (HCC 2998) | GI50 (RPMI-8226) |
| --- | --- | --- | --- | --- | --- | --- | --- | --- | --- | --- | --- | --- | --- | --- | --- | --- |
| Cc1cc(C)c(C(=O)O)c(SSc2cc(C)cc(C)c2C(=O)O)c1 | > 100 µM (inactive) | > 100 µM (inactive) | > 100 µM (inactive) | > 100 µM (inactive) | > 100 µM (inactive) | > 100 µM (inactive) | > 100 µM (inactive) | > 100 µM (inactive) | > 100 µM (inactive) | > 100 µM (inactive) | > 100 µM (inactive) | > 100 µM (inactive) | > 100 µM (inactive) | 57.7 µM (inactive) |  |  |
| O=C(CC1S/C(=N\c2ccccc2Cl)NC1=O)Nc1ccc(Cl)cc1 (configuration not stated) | > 100 µM (inactive) | > 100 µM (inactive) | 79.1 µM (inactive) | > 100 µM (inactive) | 38.9 µM (inactive) |  | > 100 µM (inactive) | > 100 µM (inactive) | > 100 µM (inactive) |  | > 100 µM (inactive) | > 100 µM (inactive) | 64 µM (inactive) | > 100 µM (inactive) | > 100 µM (inactive) |  |
| Clc1cc(Cl)c2ns[s+]c2c1Cl | > 100 µM (inactive) | > 100 µM (inactive) | > 100 µM (inactive) | > 100 µM (inactive) | > 100 µM (inactive) | > 100 µM (inactive) | > 100 µM (inactive) | > 100 µM (inactive) | 37.8 µM (inactive) | > 100 µM (inactive) | > 100 µM (inactive) | 0.132 µM (active) | > 100 µM (inactive) | > 100 µM (inactive) | > 10 µM (inactive) |  |
| CN(C)CCS/C(=N\c1ccccc1)n1cccc1 | > 100 µM (inactive) | > 100 µM (inactive) | 53.6 µM (inactive) | > 100 µM (inactive) | > 100 µM (inactive) | 22.3 µM (inactive) | > 100 µM (inactive) | > 100 µM (inactive) | 89.5 µM (inactive) | 49.9 µM (inactive) | 44.7 µM (inactive) | 72.8 µM (inactive) | 41.5 µM (inactive) | 57.7 µM (inactive) |  | > 100 µM (inactive) |
| CC1(OCc2ccccc2)C(=O)N2C1NCC2(C)C (configuration not stated) | > 100 µM (inactive) | > 100 µM (inactive) | > 100 µM (inactive) | > 100 µM (inactive) | > 100 µM (inactive) | > 100 µM (inactive) |  | > 100 µM (inactive) | > 100 µM (inactive) | > 100 µM (inactive) | > 100 µM (inactive) | > 100 µM (inactive) | > 100 µM (inactive) | > 100 µM (inactive) | > 100 µM (inactive) | > 100 µM (inactive) |
| O=C(NCCCCCCNC(=O)NC1OCC(O)C(O)C1O)NC1OCC(O)C(O)C1O (configuration not stated) | > 100 µM (inactive) | > 100 µM (inactive) | > 100 µM (inactive) | > 100 µM (inactive) | > 100 µM (inactive) | > 100 µM (inactive) | > 100 µM (inactive) | > 100 µM (inactive) | > 100 µM (inactive) | > 100 µM (inactive) | > 100 µM (inactive) | > 100 µM (inactive) | > 100 µM (inactive) | > 100 µM (inactive) |  | > 100 µM (inactive) |
| O=C(CC(=O)C(=O)Nc1ccccc1)CC(c1ccccc1)c1c(O)c2ccccc2oc1=O (configuration not stated) | > 100 µM (inactive) | > 100 µM (inactive) | > 100 µM (inactive) | > 100 µM (inactive) |  | > 100 µM (inactive) | > 100 µM (inactive) |  | > 100 µM (inactive) | > 100 µM (inactive) | > 100 µM (inactive) |  | > 100 µM (inactive) | > 100 µM (inactive) | > 100 µM (inactive) |  |
| Cn1cnc(CCc2ccccc2)n1 | > 100 µM (inactive) | > 100 µM (inactive) | > 100 µM (inactive) | > 100 µM (inactive) | > 100 µM (inactive) | > 100 µM (inactive) | > 100 µM (inactive) | > 100 µM (inactive) | > 100 µM (inactive) | > 100 µM (inactive) | > 100 µM (inactive) | > 100 µM (inactive) | > 100 µM (inactive) | > 100 µM (inactive) |  | > 100 µM (inactive) |
| CCOC(=O)c1c2ccc(/C=C/c3ccccc3)ccc-2c(C(=O)OCC)c1N | > 100 µM (inactive) | > 100 µM (inactive) | > 100 µM (inactive) | > 100 µM (inactive) | 34.1 µM (inactive) | > 100 µM (inactive) | > 100 µM (inactive) |  | > 100 µM (inactive) | > 100 µM (inactive) | > 100 µM (inactive) | 32 µM (inactive) | 95.3 µM (inactive) | > 100 µM (inactive) | 95.5 µM (inactive) |  |
| ClCCC[Si]12OCCN(CCO1)CCO2 | > 100 µM (inactive) | > 100 µM (inactive) | > 100 µM (inactive) | > 100 µM (inactive) |  | > 100 µM (inactive) | > 100 µM (inactive) | > 100 µM (inactive) | > 100 µM (inactive) | > 100 µM (inactive) | > 100 µM (inactive) | > 100 µM (inactive) | > 100 µM (inactive) | > 100 µM (inactive) | > 100 µM (inactive) | > 100 µM (inactive) |
| C[N+](C)(C)CC1CCC/C1=N/O (configuration not stated) | > 100 µM (inactive) | > 100 µM (inactive) | 23.7 µM (inactive) | 22.2 µM (inactive) | > 100 µM (inactive) | > 100 µM (inactive) |  | 48.4 µM (inactive) | > 100 µM (inactive) | > 100 µM (inactive) | > 100 µM (inactive) | > 100 µM (inactive) | 39.3 µM (inactive) | 17.9 µM (inactive) | > 100 µM (inactive) | 25.7 µM (inactive) |
| Cc1cc(C)nc(NS(=O)(=O)c2ccc(NC(=O)c3ccc(Cl)c4c(Nc5ccc(S(=O)(=O)Nc6cc(C)on6)cc5)c5ccccc5nc34)cc2)n1 | 18.4 µM (inactive) | 19.7 µM (inactive) | 20.9 µM (inactive) | 17 µM (inactive) | 16.7 µM (inactive) | 17.5 µM (inactive) | 15.7 µM (inactive) | 15.3 µM (inactive) | 20.9 µM (inactive) | 22.9 µM (inactive) |  | 14.5 µM (inactive) | 19.5 µM (inactive) |  | 18.7 µM (inactive) | 17.9 µM (inactive) |
| CC(=O)NNc1nc(C)c(C(=O)NNC(=O)C(=O)Nc2c(Cl)cc([N+](=O)[O-])cc2Cl)s1 | 26.4 µM (inactive) | 31.6 µM (inactive) | 36 µM (inactive) | 33 µM (inactive) | 22.1 µM (inactive) | 24 µM (inactive) |  | > 100 µM (inactive) | 36.1 µM (inactive) | 30.4 µM (inactive) | 43.5 µM (inactive) | 18.9 µM (inactive) | 37.8 µM (inactive) | 31.8 µM (inactive) | 37.8 µM (inactive) | 44.7 µM (inactive) |
| CO[C@@]1(c2ccccc2)O[C@H]2OCCC2[C@H]1c1ccc(Cl)cc1 (some centres not stated) | 63.8 µM (inactive) | 32.7 µM (inactive) | 29.9 µM (inactive) | 32 µM (inactive) | 26.6 µM (inactive) | 33.4 µM (inactive) | 28.8 µM (inactive) | 28.2 µM (inactive) | 28.5 µM (inactive) | 17.9 µM (inactive) | 31.8 µM (inactive) | 30.4 µM (inactive) | 20.3 µM (inactive) |  | 35.3 µM (inactive) | 34 µM (inactive) |
